From ChEMBL document CHEMBL3868634, “Animal models in the pharmacokinetic/pharmacodynamic evaluation of antimicrobial agents” (Bioorg Med Chem, 2016)

Experiment: Ratio of AUC in mouse epithelial lining fluid to AUC in mouse serum
Assay type: ADME
Conditions: read-out: Ratio AUC

## CC(C)(O/N=C(\C(=O)N[C@@H]1C(=O)N2C(C(=O)[O-])=C(C[n+]3ccccc3)CS[C@H]12)c1csc(N)n1)C(=O)O [CEFTAZIDIME]
  Kp: 0.201
